In patent US9770430B2, “Desferrioxamine-metal complexes for the treatment of immune-related disorders” (priority 2009, dated 2017):

Experiments:
[1] = pH limit of the complex solution during preparation (loss of biological activities); format: physicochemical; conditions: pH above 6.1; solution reacts with air-containing CO2
ovalbumin-induced asthma [2] = assay: Ovalbumin-induced asthma, prophylactic treatment model (lung ferritin); format: in vivo, BALB/c mice; conditions: asthmatic mice, 1 and 0.3 mg/kg i.p., then 0.3 mg/kg i.n.
Method: (§1) Ferritin concentration was quantified using an indirect ‘sandwich’ ELISA assay in accordance with a procedure developed previously in our laboratory. Briefly, ELISA 96-well micro plates were pre-coated with goat anti-human L-ferritin antibody. Rabbit anti-human H-ferritin was used as the secondary antibody. Plates were treated with goat anti-rabbit IgG conjugated with β-galactosidase. Chlorophenol Red-β-D-Galactopyranoside was then added and the plates analyzed using a microplate reader with a test (570 nm) and reference (630 nm) filters.
• Twelve-week-old Balb/c mice were administered 10 μg (100 μl) ovalbumin (OVA) dissolved with 3 mg Al(OH)3 in 0.9% saline intraperitoneally (i.p.) on days 0, 7 and 14, and 10 μg (50 μl) OVA intranasally (i.n.) on days 20, 23, 25, 27, 29, 31, 34, 36, 37, 41, 43 and 45. […]
(§2) To estimate the anti-asthmatic effect of the complexes the following parameters were measured: the concentration of ferritin in the lungs, the presence of inflammatory cells infiltration into the lungs, and the amounts of macrophages, eosinophils, lymphocytes and neutrophils in bronchoalveolar lavages (BALs).

ovalbumin-induced asthma [3] = assay: Ovalbumin-induced asthma, treatment of chronic asthma model (BAL cells, lung histology); format: in vivo, BALB/c mice; conditions: Mean ± SE
Method: • Twelve-week-old Balb/c mice were administered 10 μg (100 μl) ovalbumin (OVA) dissolved with 3 mg Al(OH)3 in 0.9% saline intraperitoneally (i.p.) on days 0, 7 and 14, and 10 μg (50 μl) OVA intranasally (i.n.) on days 20, 23, 25, 27, 29, 31, 34, 36, 37, 41, 43 and 45. For intranasal administration, mice were anesthetized with inhaled N-flurane and instilled with OVA i.n. with a micropipette. • Three-week-old BALB/c mice were sensitized (×3) with intra-peritoneal (i/p) injection (100 μl OVA solution, containing 0.3 mg OVA and 6.7 mg Al(OH)3, in 1 ml PBS) on days 0, 7 and 14. On days 14, 15, 17, 21 and 23 the mice were further sensitized with intranasal sprinklings (50 μl, each) of OVA in PBS solution containing 2 mg/ml OVA, as following: mice were anesthetized with inhaled N-flurane and instilled with OVA intra-nasally using a micropipette. Twenty-four hours after the last administration of OVA, the mice were sacrificed. Methacholine Challenge and Collection of Histologic Sections and Biochemical Samples
Either Zn-DFO, Ga-DFO, Zn-DFO and Ga-DFO 1:1 combination (herein metal complexes) or saline were administered as follows: on days −5, −1, 7 and 14, 1 mg/kg body weight metal complexes or saline were administered intraperitoneally (i.p.). On days 0, 6, 8, 13 and 15, 0.3 mg/kg body weight metal complexes or saline were administered i.p. On days 20, 23, 25, 27, 29, 31, 34, 36, 37, 41, 43 and 45, 0.3 mg/kg body weight metal complexes or saline were administered intranasally (i.n.). Twenty-four hours after the last sensitization, mice were anesthetized with urethane and the lungs were lavaged 4 times with 0.5 ml sterile PBS. Animals in the “control” group (non-asthmatic—saline treated, but not sensitized) (n=6) received saline injections and instillations, using the same regime as the asthmatic and treated animals. Animals of the “asthmatic” group (sensitized and saline-treated, rather than complex-treated) (n=6) received saline instead of the respective complex, under the same regime.
For the treatment of chronic asthma model, a similar experimental protocol was followed, with the following modifications: 1 mg/kg body weight metal complexes or saline were administered i.p. on day 0 (instead of days −5 and −1) and a further 0.3 mg/kg complexes or saline were administered on day 1. In this model, the effects of the complexes were investigated further by histological examination of lung sections stained with either haematoxylin-eosine or PAS/AB (periodic acid-Schiff/alcan blue).
as §2

[4] = system: high energy diet-induced Type II diabetes; assay: Sand rat high energy diet Type II diabetes model, body weight, blood glucose, glucose tolerance, cataract (Example 7); format: in vivo, sand rat (Psammomis obesus)
lens proteins = assay: Lens proteins of high energy diet fed sand rats (total protein, Trx, TrxR, actin, Msr activity, ferritin); format: in vivo, sand rat (Psammomis obesus)
Method: as §1
Quantification of the activity of methionine-sulfoxide reductase (Msr) was carried out by incubation the tissue lysates with dabsyl-methionine sulfoxide for 30 min at 37° C., followed by analysis of the reduced product (dabsyl methionine) by HPLC-spectrophotometric detection at 436 nm Assay: total volume 100 μl, including 200 μM Dabsyl-met (O) (as a substrate). The reaction mixture contained also 20 mM DTT, buffer, ˜100 μg protein. The incubation (reaction) was stopped by adding 100 μl of acetonitrile, spinning down, and discarding the protein fraction. The chromatography was run on a 150 mm 3 μm C-18 column, using a gradient (A to B). A=19 g of sodium acetate, pH 6.0 plus 0.5 ml of triethylamine, in one liter of solution; B=acetonitrile (pure). The substrate, dabsyl-Met (0) was prepared as described [Moskovitz, J. et al. (2001) Proc Natl Acad Sci USA, 98 (23): p. 12920-5; Moskowitz et al. (1997) Proc Natl Acad Sci USA, 94 (18): p. 9585-93].
Nineteen sand rats were divided into three groups. Group I (n=4) received a standard diet and was used as a control. Groups II (n=7) and III (n=8) received a high energy diet, leading to diabetes development. Group III was treated with 2.5 mg Zn-DFO i.p. per kg body weight three times a week, while Group II was injected with saline according to the same pattern. After the blood glucose and body weight monitoring for 63 days, glucose tolerance test was performed and blood level of 2,3-DHBA and catechols was also measured. As previously done, cataract formation was tested as well. The retina and lens were collected for biochemical analysis of the concentration of ferritin, thioredoxin-1 (Trx) and thioredoxin reductase-1 (TrxR), total lens protein and methionine sulfoxide reductase (Msr) activity. The concentration of actin, Trx and TrxR were measured by Western Blotting, and the activity of Msr was analyzed by HPLC as described.

[5] = complex of desferrioxamine with the named metal ion; cited from earlier work
[6] = Western Blotting, diabetes-induced decrease

With `CC(=O)N(O)CCCCCNC(=O)CCC(=O)N([O-])CCCCCNC(=O)CCC(=O)N([O-])CCCCCN.[Zn+2]` [Zn-DFO, Zinc-desferrioxamine] the “effect of higher pH on the Zn-DFO solution” value [1] was “marked loss of the biological activities”, the lung ferritin level (ovalbumin-induced asthma [2]) was 0.6 ± 0.2 µg/mg and the “Eosinophils in BAL fluid” value (ovalbumin-induced asthma [3]) was 0.3 ± 0.05^# 10^4 cells/ml. The “Lymphocytes in BAL fluid” value (ovalbumin-induced asthma [3]) was 0.2 ± 0.05^# 10^4 cells/ml, the “Macrophages in BAL fluid” value (ovalbumin-induced asthma [3]) was 3.0 ± 0.2^# 10^4 cells/ml and the “Neutrophils in BAL fluid” value (ovalbumin-induced asthma [3]) was 0.2 ± 0.05^# 10^4 cells/ml. The “Total WBC in BAL fluid” value (ovalbumin-induced asthma [3]) was 4.0 ± 0.3^# 10^4 cells/ml, the blood glucose value ([4]; day 28, high energy diet, 2.5 mg/kg i.p. three times a week) was 200 mg/dL and the body weight gain ([4]; high energy diet, 2.5 mg/kg i.p. three times a week, 63 days) was “gained weight moderately”. The blood glucose value ([4]; toward the end of experiment, high energy diet, 2.5 mg/kg i.p. three times a week) was 110 mg/dL, the “animals that did not develop cataract” value ([4]; treated group (Group III)) was “four” and the “animals with grade 1-2 cataract in both eyes” value ([4]; treated group (Group III)) was “Two”. For the same compound, the “animals with severe (grade 3) cataract” value ([4]; treated group (Group III)) was “one”, the “glucose tolerance test, integration of total glucose levels” value ([4]; versus Group I (standard diet)) was “insignificantly higher value than Group I” and the “lens Msr activity” value (lens proteins; HPLC, diabetes-induced decrease) was “partial, but statistically significant restoration”. The “lens concentration of Trx” value (lens proteins; [6]) was “partial, but statistically significant restoration”, the “lens concentration of TrxR” value (lens proteins; [6]) was “partial, but statistically significant restoration” and the “lens concentration of actin” value (lens proteins; [6]) was “partial, but statistically significant restoration”. The “total lens protein concentration (Bradford assay)” value (lens proteins; diabetes-induced decrease) was “partly prevented this decrease”, the “decrease in lens ferritin level” value (lens proteins; versus diabetic animals) was 3.8 fold and the “relative stability constants for the complexes of desferrioxamine” value [5] was 10^11.
